Assays:
[1] = biological target: T1, α-Synuclein (αS) aggregation (Homo sapiens, UniProt P37840); assay: Spin-down assay / SDS-PAGE of soluble and insoluble αS fractions; format: biochemical; conditions: 100 μM αS aggregated four days, indicated molar ratios
[2] = biological target: T1, α-Synuclein (αS) aggregation; assay: Thioflavin T; format: biochemical; conditions: 100 μM αS in 1 × PBS, ligand at equimolar ratio, four days
[3] = biological target: αS (Homo sapiens, UniProt P37840); assay: 2D HSQC; format: binding; conditions: 70 μM 15N αS, NS132 equimolar
[4] = system: NL5901 worms (αS-YFP in body wall muscle cells); assay: Confocal count of αS-YFP inclusions in NL5901 worms; format: in vivo, C. elegans; conditions: NL5901, 50 μM on day two
[5] = system: UA196 worms (human αS and GFP in DA neurons); assay: Confocal count of healthy DA neurons in UA196 worms, early treatment; format: in vivo, C. elegans; conditions: UA196, 50 μM on day two

Row | SMILES | Antagonist activity by SDS-PAGE analysis [1] | Effect on αS aggregation, ThT assay [2] | binding site of NS132 on αS (residues with changed amide peaks) [3] | number of inclusions [4] | neuroprotective effect on degeneration of DA neurons [5] | % loss of the total number of DA neurons ([5]; up to 15 days) [%]
1 | Cc1ccc(NC(=O)c2ccc(NC(=O)c3ccc([N+](=O)[O-])c(NCCc4c[nH]c5ccccc45)n3)c(NCC3CCCCC3)n2)c(OCC(=O)OC(C)(C)C)n1 [NS132-P] | poor antagonist of αS aggregation | – | – | – | – | –
2 | Cc1ccc(NC(=O)c2ccc(NC(=O)c3ccc([N+](=O)[O-])c(NCCc4c[nH]c5ccccc45)n3)c(NCC3CCCCC3)n2)c(OCC(=O)O)n1 [NS132] | – | most potent antagonist | residues 10-20, 36-43, and 50,55,59 | decrease in the number of inclusions | very good neuroprotective effect | –
3 | Cc1ccc(NC(=O)c2ccc(NC(=O)c3ccc([N+](=O)[O-])c(NCCc4c[nH]c5ccccc45)n3)c(NCC3CCCCC3)n2)c(OCC(=O)NO)n1 [NS163] | – | potent antagonist of αS aggregation | – | – | remarkable neuroprotective effect | < 5
